Holding throughout (format): cell-based
In assay [1] the test system is IL-8 secreted by human COPD airway epithelial cells. Nature of the assay: IL-8 ELISA, COPD airway epithelial cell monolayers, Cytomix + treatment 24 h (co-treatment). Particulars: FIG. 18, 20; co-treatment: Cytomix + HA 1 mg/mL or Dexa 10^-6M 24 h; n=5 COPD patients. On the procedure:
FIG. 18: Measurement by ELISA assay of the pro-inflammatory chemokine IL-8 secreted by human COPD airway epithelial cells cultured as monolayers. Airway epithelial cells were seeded in 48-wells plates and cultured until confluence was reached. Cells were then treated for 24 h with a combo containing a pro-inflammatory chemokine cocktail (TNFα, IL1β and IFNγ 10 ng/mL each) called Cytomix (Cy) and the anti-inflammatory dexamethasone (Dexa; 10^-6M), 15-45 kDa sodium-hyaluronic acid (HA-Na 15-45 kDa) (ARD—Pomacle—France—as prepared according to WO2004050187), 15-30 kDa sodium-hyaluronic acid (HA-Na 15-30 kDa) (Sigma Aldrich), or 30-50 kDa sodium-hyaluronic acid (HA-Na 30-50 kDa) (Sigma Aldrich) at 1 mg/mL. The culture medium was then collected and the IL-8 content was determined. n=5 COPD patient. p<0.001 (***); p<0.01 (**); p<0.05 (*). ns: non-significant.
FIG. 20: Measurement by ELISA assay of the pro-inflammatory chemokine IL-8 secreted by human COPD airway epithelial cells cultured as monolayers. Airway epithelial cells were seeded in 48-wells plates and cultured until confluence was reached. Cells were then treated for 24 h with a combo containing a pro-inflammatory chemokine cocktail (TNFα, IL1β and IFNγ 10 ng/ml each) called Cytomix (Cy) and the anti-inflammatory dexamethasone (Dexa; 10^-6M), 15-45 kDa sodium-hyaluronic acid (HA-Na 15-45 kDa) (ARD—Pomacle—France—as prepared according to WO2004050187), 15-45 kDa calcium-hyaluronic acid (HA-Ca 15-45 kDa; ARD), or 15-45 kDa potassium hyaluronic acid (HA-K 15-45 kDa; ARD) at 1 mg/mL. The culture medium was then collected and the IL-8 content was determined. n=5 different COPD patients. p<0.001 (***); p<0.01 (**); p<0.05 (*). ns: non-significant.
(In general: An ELISA detects its analyte on a solid surface through an enzyme-linked reagent.)

Assay [2] deals with IL-8 secreted by F508del/F508del CF human airway epithelial cells. Nature of the assay: IL-8 ELISA, CF airway epithelial cell monolayers, Cytomix 24 h then Cytomix + treatment 24 h (curative). Particulars: FIG. 2, 5; curative: Cytomix 24 h, then Cytomix + HA 1 mg/mL or Dexa 10^-6M 24 h; n=7 CF patients. On the procedure:
FIG. 2: Measurement by ELISA assay of the pro-inflammatory chemokine IL-8 secreted by F508del/F508del CF human airway epithelial cells cultured as monolayers. Airway epithelial cells were seeded in 48-wells plates and cultured until confluence was reached. Cells were then treated for 24 h with a pro-inflammatory chemokine cocktail (TNFα, IL1β and IFNγ; 10 ng/mL each) called Cytomix (Cy). Cells were thereafter treated with a combo containing Cytomix and the anti-inflammatory dexamethasone (Dexa; 10^-6M), or 15-45 kDa sodium-hyaluronic acid (HA-Na 15-45 kDa) (ARD—Pomacle—France—as prepared according to WO2004050187), 15-30 kDa sodium-hyaluronic acid (HA-Na 15-30 kDa) (Sigma Aldrich), or 30-50 kDa sodium-hyaluronic acid (HA-Na 30-50 kDa) (Sigma Aldrich) at 1 mg/mL during the following 24 h. The culture medium was finally collected and the IL-8 content was determined by ELISA assay. n=7 different F508del/F508del CF patients. p<0.001 (***); p<0.01 (**); p<0.05 (*).ns: non-significant.
FIG. 5: Measurement by ELISA assay of the pro-inflammatory chemokine IL-8 secreted by F508del/F508del CF human airway epithelial cells cultured as monolayers. Airway epithelial cells were seeded in 48-wells plates and cultured until confluence was reached. Cells were then treated for 24 h with a pro-inflammatory chemokine cocktail (TNFα, IL1β and IFNγ; 10 ng/ml each) called Cytomix (Cy). Cells were thereafter treated with a combo containing Cytomix and the anti-inflammatory dexamethasone (Dexa; 10^-6M), or 15-45 kDa sodium-hyaluronic acid (HA-Na 15-45 kDa) (ARD—Pomacle—France—as prepared according to WO2004050187), 15-45 kDa calcium-hyaluronic acid (HA-Ca 15-45 kDa; ARD), or 15-45 kDa potassium-hyaluronic acid (HA-K 15-45 kDa; ARD) at 1 mg/mL during the following 24 h. The culture medium was finally collected and the IL-8 content was determined. n=7 different F508del/F508del CF patients. p<0.001 (***); p<0.01 (**); p<0.05 (*). ns: non-significant.

In assay [3] the test system is IL-8 secreted by non-CF human airway epithelial cells. Nature of the assay: IL-8 ELISA, non-CF airway epithelial cell monolayers, Cytomix + treatment 24 h (co-treatment). Particulars: FIG. 13, 16; co-treatment: Cytomix + HA 1 mg/mL or Dexa 10^-6M 24 h; n=8 non-CF patients. The procedure:
FIG. 13: Measurement by ELISA assay of the pro-inflammatory chemokine IL-8 secreted by non-CF human airway epithelial cells cultured as monolayers. Airway epithelial cells were seeded in 48-wells plates and cultured until confluence was reached. Cells were then treated for 24 h with a combo containing a pro-inflammatory chemokine cocktail (TNFα, IL1β and IFNγ 10 ng/ml each) called Cytomix (Cy) and the anti-inflammatory dexamethasone (Dexa; 10^-6M), 15-45 kDa sodium-hyaluronic acid (HA-Na 15-45 kDa) (ARD—Pomacle—France—as prepared according to WO2004050187), 15-30 kDa sodium-hyaluronic acid (HA-Na 15-30 kDa) (Sigma Aldrich), or 30-50 kDa sodium-hyaluronic acid (HA-Na 30-50 kDa) (Sigma Aldrich) at 1 mg/mL. The culture medium was then collected and the IL-8 content was determined. n=8 different non-CF patients. p<0.001 (***); p<0.01 (**); p<0.05 (*). ns: non-significant.
FIG. 16: Measurement by ELISA assay of the pro-inflammatory chemokine IL-8 secreted by non-CF human airway epithelial cells cultured as monolayers. Airway epithelial cells were seeded in 48-wells plates and cultured until confluence was reached. Cells were then treated for 24 h with a combo containing a pro-inflammatory chemokine cocktail (TNFα, IL1β and IFNγ 10 ng/ml each) called Cytomix (Cy) and the anti-inflammatory dexamethasone (Dexa; 10^-6M), 15-45 kDa sodium-hyaluronic acid (HA-Na 15-45 kDa) (ARD—Pomacle—France—as prepared according to WO2004050187), 15-45 kDa calcium-hyaluronic acid (HA-Ca 15-45 kDa; ARD), or 15-45 kDa potassium hyaluronic acid (HA-K 15-45 kDa; ARD) at 1 mg/mL. The culture medium was then collected and the IL-8 content was determined. n=8 different non-CF patients. p<0.001 (***); p<0.01 (**); p<0.05 (*). ns: non-significant.

Consider “15-45 kDa potassium-hyaluronic acid [HA-K 15-45 kDa]”, for which the “decrease in IL-8 secretion” value was determined as 27.5% in assay [1], 47.5% in assay [2] and 22.2% in assay [3].

With “15-45 kDa sodium-hyaluronic acid [HA-Na 15-45 kDa]”, the results for the “decrease in IL-8 secretion” value in assay [1], in assay [2] and in assay [3] were 33.4%, 32.1% and 41.6%, respectively.

As to “15-45 kDa calcium-hyaluronic acid [HA-Ca 15-45 kDa]”, the entries for the “decrease in IL-8 secretion” value in assay [1], in assay [2] and in assay [3] were 12.9%, 33.6% and 8.5%, respectively.

Turning to “15-30 kDa sodium-hyaluronic acid [HA-Na 15-30 kDa]”, the “decrease in IL-8 secretion” value in assay [1] is 43.1%; in assay [2], 44.2%; in assay [3], 38.1%.

For `C[C@@H]1C[C@H]2[C@@H]3CCC4=CC(=O)C=C[C@]4(C)[C@@]3(F)[C@@H](O)C[C@]2(C)[C@@]1(O)C(=O)CO` [Dexamethasone, dexamethasone, reference compound], the results for the “decrease in IL-8 secretion” value in assay [1], in assay [2] and in assay [3] were 32.1%, 30.9% and 33.9%, respectively.

In the case of “30-50 kDa sodium-hyaluronic acid [HA-Na 30-50 kDa]”, the “decrease in IL-8 secretion” value was 30.8% in assay [1], 42.2% in assay [2] and 32.1% in assay [3].

These data come from patent US20260158056A1, “USE OF LOW MOLECULAR WEIGHT HYALURONIC ACID FOR THE TREATMENT OF LUNG MUCOSAL INFLAMMATION” (INSTITUT NATIONAL DE LA SANTÉ ET DE LA RECHERCHE MÉDICALE, priority 2021, published 2026).
